Measurements taken from ChEMBL document CHEMBL1153553, “Pharmacodynamics of RWJ-54428 against Staphylococcus aureus, Streptococcus pneumoniae, and Enterococcus faecalis in a neutropenic mouse thigh infection model” (Antimicrob Agents Chemother, 2008).

Key:
Streptococcus pneumoniae [1] = assay: Antibacterial activity against Streptococcus pneumoniae infected in neutropenic Swiss mouse thigh model assessed as maximal bactericidal effect per thigh at 1.5 to 200 mg/kg, ip administered 2 hrs of postinfection measured after 24 hrs; format: functional; conditions: dose mg/kg 1.5-200; route intraperitoneal
[2] = Half life in neutropenic Swiss mouse thigh infection model at 100 mg/kg, ip; format: ADME, organism-based; design: dose 100 mg/kg, route intraperitoneal; conditions: in vivo
[3] = fT>MIC in neutropenic Swiss mouse thigh model infected with methicillin-resistant Staphylococcus aureus isolate 602 assessed as 1 log reduction of bacterial count at 1.5 to 200 mg/kg, ip administered 2 hrs postinfection measured after 24 hrs; format: functional; conditions: dose mg/kg 1.5-200; route intraperitoneal
[4] = Tmax in neutropenic Swiss mouse thigh infection model at 100 mg/kg, ip; format: ADME, organism-based; design: dose 100 mg/kg, route intraperitoneal; conditions: in vivo
[5] = fT>MIC in neutropenic Swiss mouse thigh model infected with Streptococcus pneumoniae ATCC 49619 assessed as maximal effect on bacterial count reduction at 1.5 to 200 mg/kg, ip administered 2 hrs postinfection measured after 24 hrs; format: functional; conditions: dose mg/kg 1.5-200; route intraperitoneal
Staphylococcus aureus [6] = assay: Antibacterial activity against methicillin-resistant Staphylococcus aureus COL after 24 hrs by broth microdilution method; format: functional
[7] = Cmax in neutropenic Swiss mouse thigh infection model at 100 mg/kg, ip; format: ADME, organism-based; design: dose 100 mg/kg, route intraperitoneal; conditions: in vivo
[8] = Clearance with respect to bioavailability in neutropenic Swiss mouse thigh infection model at 100 mg/kg, ip; format: ADME, organism-based; conditions: in vivo
Streptococcus pneumoniae [9] = assay: Antibacterial activity against Streptococcus pneumoniae ATCC 49619 after 24 hrs by broth microdilution method; format: functional; conditions: ATCC 49619, 24 h
Enterococcus faecalis [10] = assay: Antibacterial activity against Enterococcus faecalis EFS 007 after 24 hrs by broth microdilution method; format: functional; conditions: EFS 007, 24 h
Staphylococcus aureus [11] = assay: Antibacterial activity against methicillin-resistant Staphylococcus aureus isolate 602 after 24 hrs by broth microdilution method; format: functional; conditions: isolate 602, 24 h
[12] = fT>MIC in neutropenic Swiss mouse thigh model infected with methicillin-resistant Staphylococcus aureus COL assessed as maximal effect on bacterial count reduction at 1.5 to 200 mg/kg, ip administered 2 hrs postinfection measured after 24 hrs; format: functional; conditions: dose mg/kg 1.5-200; route intraperitoneal
[13] = fT>MIC in neutropenic Swiss mouse thigh model infected with penicillin-resistant Streptococcus pneumoniae SP 019 assessed as static effect on bacterial count reduction at 1.5 to 200 mg/kg, ip administered 2 hrs postinfection measured after 24 hrs; format: functional; conditions: dose mg/kg 1.5-200; route intraperitoneal
[14] = fT>MIC in neutropenic Swiss mouse thigh model infected with Enterococcus faecalis ATCC 29212 assessed as 1 log reduction of bacterial count at 1.5 to 200 mg/kg, ip administered 2 hrs postinfection measured after 24 hrs; format: functional; conditions: dose mg/kg 1.5-200; route intraperitoneal
Streptococcus pneumoniae [15] = assay: Antibacterial activity against penicillin-resistant Streptococcus pneumoniae SP 019 after 24 hrs by broth microdilution method; format: functional; conditions: SP 019, 24 h
Staphylococcus aureus [16] = assay: Antibacterial activity against methicillin-resistant Staphylococcus aureus infected in neutropenic Swiss mouse thigh model assessed as maximal bactericidal effect per thigh at 1.5 to 200 mg/kg, ip administered 2 hrs of postinfection measured after 24 hrs; format: functional; conditions: dose mg/kg 1.5-200; route intraperitoneal
[17] = Protein binding in neutropenic Swiss mouse thigh infection model serum at 100 mg/kg, ip by ultrafiltration; format: ADME, organism-based; design: dose 100 mg/kg, route intraperitoneal; conditions: read-out: PB (converted)
[18] = fT>MIC in neutropenic Swiss mouse thigh model infected with Streptococcus pneumoniae ATCC 49619 assessed as static effect on bacterial count reduction at 1.5 to 200 mg/kg, ip administered 2 hrs postinfection measured after 24 hrs; format: functional; conditions: dose mg/kg 1.5-200; route intraperitoneal
[19] = Apparent volume of distribution with respect to bioavailability in neutropenic Swiss mouse thigh infection model at 100 mg/kg, ip; format: ADME, organism-based; conditions: in vivo, read-out: Vc/F
[20] = fT>MIC in neutropenic Swiss mouse thigh model infected with Enterococcus faecalis EFS 007 assessed as 1 log reduction of bacterial count at 1.5 to 200 mg/kg, ip administered 2 hrs postinfection measured after 24 hrs; format: functional; conditions: dose mg/kg 1.5-200; route intraperitoneal
[21] = fT>MIC in neutropenic Swiss mouse thigh model infected with methicillin-resistant Staphylococcus aureus isolate 604 assessed as static effect on bacterial count reduction at 1.5 to 200 mg/kg, ip administered 2 hrs postinfection measured after 24 hrs; format: functional; conditions: dose mg/kg 1.5-200; route intraperitoneal
Staphylococcus aureus [22] = assay: Antibacterial activity against methicillin-resistant Staphylococcus aureus 076 after 24 hrs by broth microdilution method; format: functional; conditions: Staphylococcus aureus, 076, 24 h
Enterococcus faecalis [23] = assay: Antibacterial activity against Enterococcus faecalis ATCC 29212 after 24 hrs by broth microdilution method; format: functional; conditions: ATCC 29212, 24 h
[24] = fT>MIC in neutropenic Swiss mouse thigh model infected with methicillin-resistant Staphylococcus aureus isolate 602 assessed as static effect on bacterial count reduction at 1.5 to 200 mg/kg, ip administered 2 hrs postinfection measured after 24 hrs; format: functional; conditions: dose mg/kg 1.5-200; route intraperitoneal
[25] = fT>MIC in neutropenic Swiss mouse thigh model infected with Enterococcus faecalis ATCC 29212 assessed as maximal effect on bacterial count reduction at 1.5 to 200 mg/kg, ip administered 2 hrs postinfection measured after 24 hrs; format: functional; conditions: dose mg/kg 1.5-200; route intraperitoneal
Enterococcus faecalis [26] = assay: Antibacterial activity against Enterococcus faecalis infected in neutropenic Swiss mouse thigh model assessed as maximal bactericidal effect per thigh at 1.5 to 200 mg/kg, ip administered 2 hrs of postinfection measured after 24 hrs; format: functional; conditions: dose mg/kg 1.5-200; route intraperitoneal
Staphylococcus aureus [27] = assay: Antibacterial activity against methicillin-resistant Staphylococcus aureus isolate 604 after 24 hrs by broth microdilution method; format: functional; conditions: isolate 604, 24 h
[28] = Protein binding in neutropenic Swiss mouse thigh infection model serum at 20 mg/kg, ip by ultrafiltration; format: ADME, organism-based; design: dose 20 mg/kg, route intraperitoneal; conditions: read-out: PB (converted)
[29] = fT>MIC in neutropenic Swiss mouse thigh model infected with methicillin-resistant Staphylococcus aureus COL assessed as static effect on bacterial count reduction at 1.5 to 200 mg/kg, ip administered 2 hrs postinfection measured after 24 hrs; format: functional; conditions: dose mg/kg 1.5-200; route intraperitoneal
[30] = fT>MIC in neutropenic Swiss mouse thigh model infected with Enterococcus faecalis ATCC 29212 assessed as static effect on bacterial count reduction at 1.5 to 200 mg/kg, ip administered 2 hrs postinfection measured after 24 hrs; format: functional; conditions: dose mg/kg 1.5-200; route intraperitoneal
[31] = fT>MIC in neutropenic Swiss mouse thigh model infected with methicillin-resistant Staphylococcus aureus 076 assessed as maximal effect on bacterial count reduction at 1.5 to 200 mg/kg, ip administered 2 hrs postinfection measured after 24 hrs; format: functional; conditions: dose mg/kg 1.5-200; route intraperitoneal
[32] = Half life in neutropenic Swiss mouse thigh infection model at 20 mg/kg, ip; format: ADME, organism-based; design: dose 20 mg/kg, route intraperitoneal; conditions: in vivo
[33] = fT>MIC in neutropenic Swiss mouse thigh model infected with penicillin-resistant Streptococcus pneumoniae SP 019 assessed as 1 log reduction of bacterial count at 1.5 to 200 mg/kg, ip administered 2 hrs postinfection measured after 24 hrs; format: functional; conditions: dose mg/kg 1.5-200; route intraperitoneal
[34] = fT>MIC in neutropenic Swiss mouse thigh model infected with Streptococcus pneumoniae ATCC 49619 assessed as 1 log reduction of bacterial count at 1.5 to 200 mg/kg, ip administered 2 hrs postinfection measured after 24 hrs; format: functional; conditions: dose mg/kg 1.5-200; route intraperitoneal
[35] = fT>MIC in neutropenic Swiss mouse thigh model infected with Streptococcus pneumoniae ATCC 49619 assessed as 2 log reduction of bacterial count at 1.5 to 200 mg/kg, ip administered 2 hrs postinfection measured after 24 hrs; format: functional; conditions: dose mg/kg 1.5-200; route intraperitoneal
[36] = fT>MIC in neutropenic Swiss mouse thigh model infected with Enterococcus faecalis EFS 007 assessed as static effect on bacterial count reduction at 1.5 to 200 mg/kg, ip administered 2 hrs postinfection measured after 24 hrs; format: functional; conditions: dose mg/kg 1.5-200; route intraperitoneal
[37] = fT>MIC in neutropenic Swiss mouse thigh model infected with methicillin-resistant Staphylococcus aureus isolate 609 assessed as static effect on bacterial count reduction at 1.5 to 200 mg/kg, ip administered 2 hrs postinfection measured after 24 hrs; format: functional; conditions: dose mg/kg 1.5-200; route intraperitoneal
[38] = Tmax in neutropenic Swiss mouse thigh infection model at 20 mg/kg, ip; format: ADME, organism-based; design: dose 20 mg/kg, route intraperitoneal; conditions: in vivo
[39] = fT>MIC in neutropenic Swiss mouse thigh model infected with Enterococcus faecalis EFS 007 assessed as maximal effect on bacterial count reduction at 1.5 to 200 mg/kg, ip administered 2 hrs postinfection measured after 24 hrs; format: functional; conditions: dose mg/kg 1.5-200; route intraperitoneal
[40] = fT>MIC in neutropenic Swiss mouse thigh model infected with methicillin-resistant Staphylococcus aureus isolate 609 assessed as maximal effect on bacterial count reduction at 1.5 to 200 mg/kg, ip administered 2 hrs postinfection measured after 24 hrs; format: functional; conditions: dose mg/kg 1.5-200; route intraperitoneal
[41] = fT>MIC in neutropenic Swiss mouse thigh model infected with methicillin-resistant Staphylococcus aureus COL assessed as 1 log reduction of bacterial count at 1.5 to 200 mg/kg, ip administered 2 hrs postinfection measured after 24 hrs; format: functional; conditions: dose mg/kg 1.5-200; route intraperitoneal
[42] = AUC in neutropenic Swiss mouse thigh infection model at 20 mg/kg, ip; format: ADME, organism-based; design: dose 20 mg/kg, route intraperitoneal; conditions: in vivo
[43] = Apparent volume of distribution with respect to bioavailability in neutropenic Swiss mouse thigh infection model at 20 mg/kg, ip; format: ADME, organism-based; conditions: in vivo, read-out: Vc/F
[44] = fT>MIC in neutropenic Swiss mouse thigh model infected with methicillin-resistant Staphylococcus aureus isolate 602 assessed as maximal effect on bacterial count reduction at 1.5 to 200 mg/kg, ip administered 2 hrs postinfection measured after 24 hrs; format: functional; conditions: dose mg/kg 1.5-200; route intraperitoneal
[45] = Cmax in neutropenic Swiss mouse thigh infection model at 20 mg/kg, ip; format: ADME, organism-based; design: dose 20 mg/kg, route intraperitoneal; conditions: in vivo
[46] = fT>MIC in neutropenic Swiss mouse thigh model infected with methicillin-resistant Staphylococcus aureus 076 assessed as static effect on bacterial count reduction at 1.5 to 200 mg/kg, ip administered 2 hrs postinfection measured after 24 hrs; format: functional; conditions: dose mg/kg 1.5-200; route intraperitoneal
[47] = Clearance with respect to bioavailability in neutropenic Swiss mouse thigh infection model at 20 mg/kg, ip; format: ADME, organism-based; conditions: in vivo
Staphylococcus aureus [48] = assay: Antibacterial activity against methicillin-resistant Staphylococcus aureus isolate 609 after 24 hrs by broth microdilution method; format: functional; conditions: isolate 609, 24 h
[49] = AUC in neutropenic Swiss mouse thigh infection model at 100 mg/kg, ip; format: ADME, organism-based; design: dose 100 mg/kg, route intraperitoneal; conditions: in vivo

## CS(=O)(=O)O.NCCSCc1cnccc1SC1=C(C(=O)O)N2C(=O)[C@@H](NC(=O)/C(=N\O)c3nc(N)sc3Cl)[C@H]2SC1
Streptococcus pneumoniae [1]
  log10cfu: -3.75
[2]
  half-life: 19.8 min
[3]
  fT>MIC: 20%
[4]
  Tmax: 15.6 min
[5]
  fT>MIC: 28%
Staphylococcus aureus [6]
  MIC: 1 µg/mL
[7]
  Cmax: 133 µg/mL
[8]
  CL/F: 15 mL/min/kg
Streptococcus pneumoniae [9]
  MIC: 0.03 µg/mL
Enterococcus faecalis [10]
  MIC: 0.125 µg/mL
Staphylococcus aureus [11]
  MIC: 0.5 µg/mL
[12]
  fT>MIC: 36%
[13]
  fT>MIC: 16%
[14]
  fT>MIC: 48%
Streptococcus pneumoniae [15]
  MIC: 0.5 µg/mL
Staphylococcus aureus [16]
  log10cfu: -2.83
[17]
  fraction unbound: 0.4
[18]
  fT>MIC: 18%
[19]
  Vd/F: 0.44 L/kg
[20]
  fT>MIC: 56%
[21]
  fT>MIC: 20%
Staphylococcus aureus [22]
  MIC: 1 µg/mL
Enterococcus faecalis [23]
  MIC: 0.06 µg/mL
[24]
  fT>MIC: 17%
[25]
  fT>MIC: 60%
Enterococcus faecalis [26]
  log10cfu: -1.65
Staphylococcus aureus [27]
  MIC: 0.5 µg/mL
[28]
  fraction unbound: 0.4
[29]
  fT>MIC: 14%
[30]
  fT>MIC: 30%
[31]
  fT>MIC: 32%
[32]
  half-life: 10.2 min
[33]
  fT>MIC: 22%
[34]
  fT>MIC: 21%
[35]
  fT>MIC: 23%
[36]
  fT>MIC: 46%
[37]
  fT>MIC: 16%
[38]
  Tmax: 5.4 min
[39]
  fT>MIC: 60%
[40]
  fT>MIC: 22%
[41]
  fT>MIC: 20%
[42]
  AUC: 16600 ng·h/mL
[43]
  Vd/F: 0.3 L/kg
[44]
  fT>MIC: 24%
[45]
  Cmax: 47300 ng/mL
[46]
  fT>MIC: 16%
[47]
  CL/F: 20 mL/min/kg
Staphylococcus aureus [48]
  MIC: 0.5 µg/mL
[49]
  AUC: 108 µg·h/mL
